Measured values reported in patent publication US11541023B2, “Compounds and compositions for the treatment of neurodegenerative and inflammatory diseases” (SORBONNE UNIVERSITE, priority 2018, dated 2023).
Where a name gives a salt, the structure may show the parent alone.

Key:
KLK1 = KLK1 (Homo sapiens (Human), UniProt P06870); experiment: KLK1 enzymatic inhibition test (Boc-PFR-AMC); type: biochemical; settings: for inhibition at 10 µM: KLK1 1.6 nM, Boc-PFR-AMC 100 μM, 15 min at 37° C., compound 10 μM; for IC50: KLK1, Boc-PFR-AMC, ni = non-inhibitor
Protocol: The molecules were tested in order to evaluate their possible inhibitory effect on the enzymatic activity of KLK1. […] The results are presented in Table 4 below; all the inhibitors are reversible.

[1] = test system: primary culture of murine cortical neurons; experiment: Neurocytotoxicity, XTT cell survival test; type: cell-based; settings: for % cell survival: 48 h
Protocol: FIG. 1: Evaluation of the neurocytotoxicity of the compounds 1 (comparative), 2 and 4 (according to the invention). The percentage cell survival was determined by measuring the absorbance at 485 nm for each concentration compared with the controls treated only with complete medium (positive control) or 20% DMSO (negative control). Each concentration was tested in quadruplicate. The neurons were taken from the stage E16 embryos of Swiss females. The cells are seeded at a density of 50 000 cells/well in precoated sterile transparent 96-well plates. The cells are cultured for 48 h in DMEM medium supplemented with 10% fetal calf serum (FCS), penicillin, streptomycin, N2 and B27, at 37° C. under a humid atmosphere with 5% CO2. The cells are then placed in the presence of the compounds described above (10, 25 or 50 μM) or of the DMSO control, and then incubated for 48 h. The medium is then replaced with 100 μl of XTT (0.3 mg·ml^−1) in order to carry out the cell viability test. […] The activity of the mitochondria is determined by measuring the absorbance at 485 nm. The percentage cell survival is calculated by the ratio of the absorbance in the presence of the inhibitor relative to the control condition (DMSO). The molecule is considered to be cytotoxic when the percentage cell survival is less than 80%.

[2] = test system: CG4 cell line (rat oligodendrocyte precursor cells), GFP/mCherry; experiment: Cytotoxicity on GFP/mCherry oligodendrocyte line (Hoechst staining); type: cell-based; settings: 72 h
Protocol: FIGS. 2 and 3: Evaluation of the cytotoxicity of the compounds 2 and 3 on the GFP/-mCherry oligodendrocyte line. The cell survival was evaluated by measuring the fluorescence intensity of the Hoechst staining compared with the basal control (TB). Each concentration was tested in quadruplicate. Statistics: Mann-Whitney test (p value=0.019). […] Legend—TB: basal control, T+: positive control (9-cis-retinoic acid). The line used is a CG4 cell line, said cell line being rat oligodendrocyte precursor cells (OPCs), and doubly transduced with the GFP gene under the control of the CMV promoter and the mCherry marker gene under the control of a promoter specific for differentiated and mature oligodendrocytes. The mCherry marker is expressed only at the differentiated oligodendrocyte stage and thus makes it possible to test compounds capable of inducing OPC differentiation. The cells were also stained with Hoechst in order to evaluate their viability. The cells are cultured in the proliferation medium described by Louis et al. (Louis et al., J Neurosci Res. 1992 January; 31(1):193-204) during their seeding, and then transferred into a differentiation medium (DMEM/F12, B27, N1, biotin, laminin). The cells are treated with various concentrations of inhibitor for 72 h in 96-well plates, then screened by means of an automated inverted microscope. The experimental controls used are a basal control containing only the differentiation medium and a positive control, 9-cis-retinoic acid, which is known for its effect in inducing OPC differentiation (Huang et al., Nature Neuroscience 14, 45-53 (2011)). Firstly, the cytotoxicity of the compounds is evaluated by virtue of the comparison of the intensity of the Hoechst staining for each experimental condition with respect to the basal control.

KLK6 = KLK6 (Homo sapiens (Human), UniProt Q92876); experiment: KLK6 enzymatic inhibition test (fluorogenic/FRET peptide substrates); settings: for inhibition at 10 µM: read-out: % Inhibition at 10 μM
plasmin = plasmin (Homo sapiens (Human), UniProt P00747); experiment: Plasmin enzymatic inhibition test (Boc-QAR-AMC / PAR4 FRET substrate); settings: for inhibition at 10 µM: read-out: % Inhibition at 10 μM
[3] = plasmin, FRET substrate PAR4, ni = non-inhibitor

Sequence of plasmin (P00747 581-810 limits assumed): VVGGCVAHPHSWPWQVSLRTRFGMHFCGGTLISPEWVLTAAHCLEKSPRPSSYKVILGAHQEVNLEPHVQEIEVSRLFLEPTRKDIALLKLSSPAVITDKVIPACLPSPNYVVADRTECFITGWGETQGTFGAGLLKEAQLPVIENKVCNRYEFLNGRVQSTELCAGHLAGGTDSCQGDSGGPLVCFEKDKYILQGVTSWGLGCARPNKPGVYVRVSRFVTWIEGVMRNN
Sequence of plasmin (P00747 97-580 partner limits assumed): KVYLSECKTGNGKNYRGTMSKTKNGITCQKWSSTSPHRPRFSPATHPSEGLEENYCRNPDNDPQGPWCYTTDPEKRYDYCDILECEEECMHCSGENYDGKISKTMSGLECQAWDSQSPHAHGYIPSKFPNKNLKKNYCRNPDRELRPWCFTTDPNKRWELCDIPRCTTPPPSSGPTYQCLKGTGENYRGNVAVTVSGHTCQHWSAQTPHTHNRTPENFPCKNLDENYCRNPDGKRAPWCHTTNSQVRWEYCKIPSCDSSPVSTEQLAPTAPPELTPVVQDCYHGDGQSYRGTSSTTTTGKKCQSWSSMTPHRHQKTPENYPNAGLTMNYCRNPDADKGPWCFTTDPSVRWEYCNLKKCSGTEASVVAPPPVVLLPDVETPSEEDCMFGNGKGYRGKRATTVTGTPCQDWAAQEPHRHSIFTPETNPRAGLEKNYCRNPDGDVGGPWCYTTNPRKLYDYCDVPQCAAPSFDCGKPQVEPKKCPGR
Sequence of KLK1 (P06870 25-262): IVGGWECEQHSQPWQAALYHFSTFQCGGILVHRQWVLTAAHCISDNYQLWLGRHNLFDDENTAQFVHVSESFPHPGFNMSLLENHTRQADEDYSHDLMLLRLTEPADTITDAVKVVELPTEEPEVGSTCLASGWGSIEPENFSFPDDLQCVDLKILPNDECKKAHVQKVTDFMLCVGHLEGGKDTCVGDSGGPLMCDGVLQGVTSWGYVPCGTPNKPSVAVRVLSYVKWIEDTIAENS

SMILES	inhibition at 10 µM (KLK1)	IC50 (KLK1)	% cell survival ([1]; 10 μM)	inhibition at 10 µM (KLK6)	IC50 (plasmin; [3])	inhibition at 10 µM (plasmin)	% cell survival ([1]; 25 μM)	other results
CC(C)(C)c1ccc(O)c(C(=O)Nc2ccc(CN)cc2)c1.Cl [Compound 1, N-(4-(Aminomethyl)phenyl)-5-tert-butyl-2-hydroxybenzamide hydrochloride, reference compound]	32.8%	ni	> 80%	51%	ni	39.3%		Neurocytotoxicity ([1]; 10, 25 and 50 μM): dose-dependent effect; Concentrations at which toxicity is exhibited ([2]; oligodendrocyte line): above 10 μM; Inhibition type (KLK6; KLK6, Boc-QAR-AMC, competitive/noncompetitive by Dixon method): Competitive; IC50 (KLK6; KLK6, FRET substrate MBP3): 39.8 µM; IC50 (KLK6; KLK6, FRET substrate PAR2): 21.7 µM; IC50 (KLK6; KLK6, substrate Boc-QAR-AMC): 9.06 µM; Ki (KLK6; KLK6, substrate Boc-QAR-AMC, Dixon method): 4.44 µM; Inhibition type (reversibility) (KLK6; KLK6, dilution method): reversible; Inhibition type (plasmin; plasmin, Boc-QAR-AMC, competitive/noncompetitive by Dixon method): Competitive; IC50 (plasmin; plasmin, substrate Boc-QAR-AMC): 17.1 µM; Ki (plasmin; plasmin, substrate Boc-QAR-AMC, Dixon method): 14.4 µM; Inhibition type (reversibility) (plasmin; plasmin, dilution method): reversible
Cl.NCc1ccc(NC(=O)c2ccc3ccccc3c2O)cc1 [Compound 2, N-(4-(Aminomethyl)phenyl)-1-hydroxy-2-naphthamide hydrochloride]	47.7%	ni	> 80%	77.2%		97.4%	> 90%	% cell survival ([1]; second statement printed as 25 μM (presumably 50 μM)): > 90%; Cytotoxicity (Hoechst staining relative to basal control) ([2]; all concentrations tested): not cytotoxic
NCc1ccc(NC(=O)c2cc3ccccc3cc2O)cc1 [Compound 3, N-(4-(Aminomethyl)phenyl)-3-hydroxy-2-naphthamide hydrochloride]	77%					81%		
Cc1ccc(C(=O)Nc2ccc(CN)cc2)c(O)c1.Cl [Compound 4, N-(4-(Aminomethyl)phenyl)-4-methyl-2-hydroxybenzamide hydrochloride]	61.7%		> 80%	68.8%	ni	54.3%	> 90%	Cytotoxicity ([2]; between 2 and 12 μM): does not exhibit any toxicity
COc1ccc2c(O)c(C(=O)Nc3ccc(CN)cc3)ccc2c1 [Compound 5, N-(4-(Aminomethyl)phenyl)-6-methoxy-1-hydroxy-2-naphthamide hydrochloride]	46.5%					100%		
CC(C)c1ccc(C(=O)Nc2ccc(CN)cc2)c(O)c1 [Compound 6, N-(4-(Aminomethyl)phenyl)-4-isopropyl-2-hydroxybenzamide hydrochloride]	57.7%			84.7%		70.2%		
